The values that follow come from ChEMBL document CHEMBL3244332, “Studies on quinoline derivatives and related compounds. 5. Synthesis and antimicrobial activity of novel 1-alkoxy-1,4-dihydro-4-oxo-3-quinolinecarboxylic acids” (J Med Chem, 1977).

Values after ≈ are worked out from the molar mass of the structure shown.

One series relates to Staphylococcus aureus. In words: microbe, parasite or virus in culture. Conditions: 209P, 24 h. The series is classed as functional.
The next series deals with Pseudomonas aeruginosa. In words: microbe, parasite or virus in culture. The series is classed as functional. Conditions: Pseudomonas aeruginosa, 104, 24 h.
Series [1] deals with Proteus mirabilis. In words: microbe, parasite or virus in culture. The series is classed as functional. As to conditions: GN 2425, 24 h.
Description: Antibacterial activity against Proteus mirabilis GN 2425 after 24 hrs by twofold dilution assay
The subject of a further series is Klebsiella pneumoniae. In words: microbe, parasite or virus in culture. The series is classed as functional. Conditions: PCI-602, 24 h.
Series [2] deals with Escherichia coli. In words: Antibacterial activity against Escherichia coli NIHJ after 24 hrs by twofold dilution assay. The series is classed as functional.
Series [3] can be described thus: Drug level in Wistar rat serum at 50 mg/kg, po measured at 0.5 hr.
A short description of series [4]: Drug recovery in Wistar rat urine at 50 mg/kg, po measured over 24 hrs.
The nature of series [5]: Drug level in Wistar rat serum at 50 mg/kg, po measured at 4 hrs.
The nature of series [6]: Drug level in Wistar rat serum at 50 mg/kg, po measured at 1 hr.
The nature of series [7]: Drug level in Wistar rat serum at 50 mg/kg, po measured at 2 hrs.
Series [8] relates to Proteus mirabilis. In words: Antibacterial activity against Proteus mirabilis GN2425 infected in ICR mouse administered orally 0.5 hr and 6 hrs post infection measured 1 week post challenge. The series is classed as functional. As to conditions: GN2425, po.
Series [9] is described as follows: Drug level in Wistar rat serum at 50 mg/kg, po measured at 6 hrs. Conditions: read-out: Drug uptake. The series is classed as ADME, organism-based. Further details: dose 50 mg/kg, route oral.
Series [10] concerns Escherichia coli. Put plainly: Antibacterial activity against Escherichia coli 0111 infected in ICR mouse administered orally 0.5 hr and 6 hrs post infection measured 1 week post challenge. The series is classed as functional. As to conditions: Escherichia coli, 0111, po.

Description for Klebsiella pneumoniae: Antibacterial activity against Klebsiella pneumoniae PCI-602 after 24 hrs by twofold dilution assay
Description for Pseudomonas aeruginosa: Antibacterial activity against Pseudomonas aeruginosa 104 after 24 hrs by twofold dilution assay
Description for Staphylococcus aureus: Antibacterial activity against Staphylococcus aureus 209P after 24 hrs by twofold dilution assay

With `C=CCOn1cc(C(=O)O)c(=O)c2c3sc(=O)n(CC=C)c3ccc21`, the MIC is 50 µg/mL (≈ 140 µM) in the series with Staphylococcus aureus; above 200 µg/mL in the series with Pseudomonas aeruginosa; above 200 µg/mL against Proteus mirabilis [1]; 200 µg/mL (≈ 558 µM) against Klebsiella pneumoniae; 100 µg/mL (≈ 279 µM) in the series with Escherichia coli [2].

For the molecule `O=C(O)c1cn(OCc2ccccc2)c2ccc3c(sc(=O)n3Cc3ccccc3)c2c1=O`, the MIC against Staphylococcus aureus is above 1.56 µg/mL; in the series with Pseudomonas aeruginosa, above 200 µg/mL; with Proteus mirabilis [1], above 200 µg/mL; against Klebsiella pneumoniae, above 200 µg/mL; in the series with Escherichia coli [2], above 200 µg/mL.

With `COn1cc(C(=O)O)c(=O)c2ccc3c(c21)CCC3`, the MIC in the series with Staphylococcus aureus was 25 µg/mL (≈ 96.4 µM); in the series with Pseudomonas aeruginosa, above 200 µg/mL; with Proteus mirabilis [1], 50 µg/mL (≈ 193 µM); with Klebsiella pneumoniae, 3.13 µg/mL (≈ 12.1 µM); against Escherichia coli [2] it was 12.5 µg/mL (≈ 48.2 µM).

Regarding `C=CCOn1cc(C(=O)O)c(=O)c2cc3c(cc21)OCO3`, the MIC stood at 12.5 µg/mL (≈ 43.2 µM) in the series with Staphylococcus aureus; 200 µg/mL (≈ 691 µM) in the series with Pseudomonas aeruginosa; 50 µg/mL (≈ 173 µM) in the series on Proteus mirabilis [1]; 3.13 µg/mL (≈ 10.8 µM) in the series on Klebsiella pneumoniae; 6.25 µg/mL (≈ 21.6 µM) against Escherichia coli [2].

Turning to `CC(C)On1cc(C(=O)O)c(=O)c2cc3c(cc21)OCO3`, the MIC against Staphylococcus aureus was 25 µg/mL (≈ 85.8 µM); with Pseudomonas aeruginosa, 200 µg/mL (≈ 687 µM); in the series with Proteus mirabilis [1], 50 µg/mL (≈ 172 µM); in the series on Klebsiella pneumoniae, 3.13 µg/mL (≈ 10.7 µM); against Escherichia coli [2], 6.25 µg/mL (≈ 21.5 µM).

With `CCCOn1cc(C(=O)O)c(=O)c2cc3c(cc21)OCO3`, the MIC in the series with Staphylococcus aureus was 50 µg/mL (≈ 172 µM); against Pseudomonas aeruginosa, 100 µg/mL (≈ 343 µM); in the series on Proteus mirabilis [1] it was 200 µg/mL (≈ 687 µM); in the series on Klebsiella pneumoniae, above 200 µg/mL; with Escherichia coli [2] it was 100 µg/mL (≈ 343 µM).

`O=C(O)c1cn(OCCO)c2cc3c(cc2c1=O)OCO3`: the MIC in the series on Staphylococcus aureus was 100 µg/mL (≈ 341 µM); against Pseudomonas aeruginosa, 100 µg/mL (≈ 341 µM); against Proteus mirabilis [1] it was 100 µg/mL (≈ 341 µM); against Klebsiella pneumoniae it was above 200 µg/mL; with Escherichia coli [2], 100 µg/mL (≈ 341 µM).

As to `O=C(O)c1cn(OCC2CC2)c2cc3c(cc2c1=O)OCO3`, the MIC against Staphylococcus aureus is 50 µg/mL (≈ 165 µM); against Pseudomonas aeruginosa, above 200 µg/mL; against Proteus mirabilis [1], 100 µg/mL (≈ 330 µM); with Klebsiella pneumoniae, above 200 µg/mL; against Escherichia coli [2], 50 µg/mL (≈ 165 µM).

Regarding `COn1cc(C(=O)O)c(=O)c2cc3c(cc21)CCO3`, the MIC turned out to be 6.25 µg/mL (≈ 23.9 µM) in the series on Staphylococcus aureus; 12.5 µg/mL (≈ 47.9 µM) with Pseudomonas aeruginosa; 0.39 µg/mL (≈ 1.49 µM) in the series with Proteus mirabilis [1]; 0.2 µg/mL (≈ 0.766 µM) against Klebsiella pneumoniae; 0.78 µg/mL (≈ 2.99 µM) against Escherichia coli [2]. Further, the concentration at 0.5 h in series [3] is 6200 ng/mL. This molecule had a dose excreted at 24 h in series [4] of 11%. Besides, in series [5], the concentration at 4 h is 1700 ng/mL. Also, the concentration at 1 h in [6] is 4700 ng/mL. Further, in series [7], the concentration at 2 h came out at 4000 ng/mL.

As to `COn1cc(C(=O)O)c(=O)c2c3c(ccc21)OCC3`, the MIC is 50 µg/mL (≈ 191 µM) in the series on Staphylococcus aureus; above 200 µg/mL against Pseudomonas aeruginosa; above 200 µg/mL with Proteus mirabilis [1]; 50 µg/mL (≈ 191 µM) against Klebsiella pneumoniae; 100 µg/mL (≈ 383 µM) in the series on Escherichia coli [2].

As to `COn1cc(C(=O)O)c(=O)c2c3c(ccc21)OCOC3`, the MIC against Staphylococcus aureus is 25 µg/mL (≈ 90.2 µM); against Pseudomonas aeruginosa, above 200 µg/mL; against Proteus mirabilis [1], 200 µg/mL (≈ 721 µM); in the series with Klebsiella pneumoniae it was 12.5 µg/mL (≈ 45.1 µM); against Escherichia coli [2], 12.5 µg/mL (≈ 45.1 µM).

Turning to `C=CCOn1cc(C(=O)O)c(=O)c2c3c(ccc21)OCOC3`, the MIC was above 50 µg/mL with Staphylococcus aureus; above 200 µg/mL in the series with Pseudomonas aeruginosa; above 200 µg/mL in the series on Proteus mirabilis [1]; above 200 µg/mL against Klebsiella pneumoniae; above 200 µg/mL in the series with Escherichia coli [2].

For the molecule `COn1cc(C(=O)O)c(=O)c2c3sc(=O)n(C)c3ccc21`, the MIC in the series with Staphylococcus aureus turned out to be 6.25 µg/mL (≈ 20.4 µM); with Pseudomonas aeruginosa, 12.5 µg/mL (≈ 40.8 µM); in the series with Proteus mirabilis [1] it was 0.39 µg/mL (≈ 1.27 µM); against Klebsiella pneumoniae, 0.2 µg/mL (≈ 0.653 µM); in the series with Escherichia coli [2], 0.2 µg/mL (≈ 0.653 µM). In series [3], this molecule showed a concentration at 0.5 h of 2900 ng/mL. This molecule also gave a dose excreted at 24 h in [4] of 1.8%. In addition, in series [5], the concentration at 4 h was 1900 ng/mL. The concentration at 1 h in series [6] was determined as 4500 ng/mL. The molecule also registered a concentration at 2 h in series [7] of 3700 ng/mL.

Consider `CCn1cc(C(=O)O)c(=O)c2c3c(ccc21)OCOC3`, for which the MIC with Staphylococcus aureus was 3.13 µg/mL (≈ 11.4 µM); with Pseudomonas aeruginosa, above 200 µg/mL; in the series on Proteus mirabilis [1] it was 12.5 µg/mL (≈ 45.4 µM); against Escherichia coli [2] it was 6.25 µg/mL (≈ 22.7 µM).

With `CCn1cc(C(=O)O)c(=O)c2ccc3c(c21)CCC3`, the MIC with Staphylococcus aureus came out at 3.13 µg/mL (≈ 12.2 µM); with Pseudomonas aeruginosa, 50 µg/mL (≈ 194 µM); in the series with Proteus mirabilis [1], 6.25 µg/mL (≈ 24.3 µM); against Klebsiella pneumoniae, 0.39 µg/mL (≈ 1.52 µM); in the series with Escherichia coli [2], 1.56 µg/mL (≈ 6.06 µM).

With `CCOn1cc(C(=O)O)c(=O)c2cc3c(cc21)OCO3`, the MIC was 25 µg/mL (≈ 90.2 µM) against Staphylococcus aureus; 100 µg/mL (≈ 361 µM) in the series with Pseudomonas aeruginosa; 50 µg/mL (≈ 180 µM) against Proteus mirabilis [1]; 1.56 µg/mL (≈ 5.63 µM) in the series on Klebsiella pneumoniae; 3.13 µg/mL (≈ 11.3 µM) in the series with Escherichia coli [2].

Turning to `COn1cc(C(=O)O)c(=O)c2cc3c(cc21)OCO3` [MILOXACIN], the MIC in the series on Staphylococcus aureus was 6.25 µg/mL (≈ 23.7 µM); against Pseudomonas aeruginosa, 12.5 µg/mL (≈ 47.5 µM); with Proteus mirabilis [1], 0.39 µg/mL (≈ 1.48 µM); against Klebsiella pneumoniae, 0.39 µg/mL (≈ 1.48 µM); in the series with Escherichia coli [2], 0.39 µg/mL (≈ 1.48 µM). Besides, the figures for the median effective dose (ED50) in the series with Proteus mirabilis [8] and in the series with Escherichia coli [10] were 30 mg/kg and 7.2 mg/kg, respectively. This molecule also returned a concentration at 0.5 h in [3] of 11600 ng/mL. The concentration at 6 h in [9] is 1500 ng/mL. Also, in series [4], the dose excreted at 24 h was found to be 7.5%. The concentration at 4 h in [5] was found to be 19500 ng/mL. The concentration at 1 h in [6] came to 27800 ng/mL. This molecule displayed a concentration at 2 h in [7] of 22300 ng/mL.

Turning to `CCn1cc(C(=O)O)c(=O)c2cc3c(cc21)OCO3` [OXOLINIC ACID], the MIC is 3.13 µg/mL (≈ 12 µM) with Staphylococcus aureus; 6.25 µg/mL (≈ 23.9 µM) with Pseudomonas aeruginosa; 0.39 µg/mL (≈ 1.49 µM) in the series with Proteus mirabilis [1]; 0.78 µg/mL (≈ 2.99 µM) in the series with Klebsiella pneumoniae; 0.39 µg/mL (≈ 1.49 µM) in the series with Escherichia coli [2]. Also, the values for the 50% effective dose (ED50) with Proteus mirabilis [8] and in the series on Escherichia coli [10] were 48 mg/kg and 20 mg/kg, respectively. Moreover, in series [3], the concentration at 0.5 h turned out to be 700 ng/mL. Also, in series [9], the concentration at 6 h is 2700 ng/mL. The dose excreted at 24 h in series [4] came to 2.4%. The same molecule displayed a concentration at 4 h in series [5] of 4800 ng/mL. Besides, the concentration at 1 h in series [6] amounted to 1500 ng/mL. Besides, the concentration at 2 h in [7] was 4700 ng/mL.

`CCn1cc(C(=O)O)c(=O)c2c3sc(=O)n(C)c3ccc21` [TIOXACIN]: the MIC against Staphylococcus aureus is 3.13 µg/mL (≈ 10.3 µM); in the series on Pseudomonas aeruginosa, above 200 µg/mL; in the series on Proteus mirabilis [1], 0.39 µg/mL (≈ 1.28 µM); in the series on Klebsiella pneumoniae it was 0.2 µg/mL (≈ 0.657 µM); in the series with Escherichia coli [2] it was 0.1 µg/mL (≈ 0.329 µM). Moreover, the concentration at 0.5 h in [3] turned out to be 300 ng/mL. Further, the concentration at 6 h in [9] came out at 360 ng/mL. Besides, in series [4], the dose excreted at 24 h is 0.3%. The concentration at 4 h in [5] worked out at 450 ng/mL. The molecule further came in with a concentration at 1 h in series [6] of 360 ng/mL. In addition, in series [7], the concentration at 2 h was 320 ng/mL.
